Experimental findings from patent US6503490B2, “Deodorant products” (Unilever Home & Personal Care USA, division of Conopco, Inc., priority 2000, dated 2003) are described below.

The first experiment deals with Staphylococcus epidermidis. The experiment in a line: Anti-microbial performance test: growth inhibition of axillary isolate of S. epidermidis in semi-synthetic medium (OD 600 nm). To be noted: concentration of 3×10^−6 mol.dm^−3 or less. In kind it is cell-based. As for the experimental part:
An axillary isolate of Staphylococcus epidermidis was grown overnight in 100 ml of tryptone soy broth (TSB, Oxoid Ltd). 10 ml of this culture was taken and subjected to centrifugation. The separated cells were re-suspended in 10 ml of phosphate buffered saline and the centrifugation procedure repeated. The washed cells were re-suspended in 10 ml of phosphate buffered saline to give the inoculum. 100 μl of the inoculum was added to 100 ml of semi-synthetic medium (SSM) containing (NH4)2SO4 (0.066 g),MgSO4.7H2O (0.012 g), KCl (0.1 g), KH2PO4 (0.27 g), Na2HPO4 (1.43 g), thiamin (0.1 mg), biotin (0.05 mg), Peptone P (0.05 g), and glucose (2.0 mmole) which had been previously sterilised by autoclaving at 121° C. for 20 minutes. The pH of the SSM was adjusted to 6.7 with HCl after sterilisation, prior to addition of the inoculum. This control medium was utilised in all of the in vitro inhibition studies. The chelator-containing test media were prepared in a similar manner, the chelator being introduced at a concentration of 3×10^−6 mol.dm^−3 before the pH adjustment with HCl.
100 μl of the S. epidermidis inoculum was introduced into the control medium and into test media containing the chelators indicated in Table 2. The cultures were inoculated at 37° C. (with agitation at 200 rpm) for 16 hours, and the optical density of the cultures measured at 600 nm to determine the extent of bacterial growth. By comparison of the optical density of the culture in the presence of chelating agent, to that of the control, the percentage inhibition of growth was established. (Optical density measurements were made on 1 in 4 dilutions of the cultures with 0.9% (w/v) saline, using 1 cm path length cuvettes, on a Pharmacia Biotech Ultrospec 200 Spectrophotometer.)
With `O=C(O)CN(CCN(CC(=O)O)CC(=O)O)CC(=O)O` [EDTA, ethylenediaminetetraacetic acid], the “Significant inhibition of growth of S. epidermidis (at least 30%)” value (“Significant inhibition … (at least 30%)” below) was “are not”.

As for `O=C(O)CN(CCN(CCN(CC(=O)O)CC(=O)O)CC(=O)O)CCN(CC(=O)O)CC(=O)O` [TTHA, triethylenetetraaminehexaacetic acid], the “Significant inhibition … (at least 30%)” value was “capable of achieving significant inhibition”.

`O=C(O)CN(CCN(CC(=O)O)CC(=O)O)CCN(CC(=O)O)CC(=O)O` [DTPA, diethylenetriaminepentaacetic acid]: the “Significant inhibition … (at least 30%)” value is recorded as “capable of achieving significant inhibition”.

For the compound `O=C(O)CN(CC(=O)O)[C@@H]1CCCC[C@H]1N(CC(=O)O)CC(=O)O` (relative stereo) [CDTA, trans-1,2-diaminocyclohexane-N,N,N′,N′-tetraacetic acid], the “Significant inhibition … (at least 30%)” value was “are not”.

For a further experiment, the target named is T1, human diferric transferrin (Homo sapiens, UniProt P02787).
T1 construct: purchased Sigma Chemicals
T1 sequence (P02787 20-698): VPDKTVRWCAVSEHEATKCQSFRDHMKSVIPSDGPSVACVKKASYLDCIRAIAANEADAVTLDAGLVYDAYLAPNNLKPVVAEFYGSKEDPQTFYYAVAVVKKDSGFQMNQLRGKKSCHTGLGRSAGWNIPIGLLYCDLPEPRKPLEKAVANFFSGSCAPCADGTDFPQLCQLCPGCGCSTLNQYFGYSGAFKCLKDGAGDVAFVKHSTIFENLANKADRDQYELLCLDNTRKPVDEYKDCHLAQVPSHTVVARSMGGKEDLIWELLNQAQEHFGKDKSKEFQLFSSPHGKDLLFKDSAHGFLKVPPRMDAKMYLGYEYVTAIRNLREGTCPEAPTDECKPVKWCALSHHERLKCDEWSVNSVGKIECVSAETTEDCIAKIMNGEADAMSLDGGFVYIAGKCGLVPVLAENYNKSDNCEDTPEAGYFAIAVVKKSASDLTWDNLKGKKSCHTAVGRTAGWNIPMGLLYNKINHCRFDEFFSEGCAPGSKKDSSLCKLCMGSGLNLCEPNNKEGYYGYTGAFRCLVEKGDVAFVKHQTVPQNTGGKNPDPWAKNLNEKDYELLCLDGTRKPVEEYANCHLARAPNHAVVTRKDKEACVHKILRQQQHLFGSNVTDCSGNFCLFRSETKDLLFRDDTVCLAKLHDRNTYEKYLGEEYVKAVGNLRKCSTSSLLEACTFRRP
The experiment in a line: Transferrin dissociation promotion test (FerroZine, absorption at 562 nm). In kind it is biochemical. To be noted: after 24 hours, 10 mmol.l^−1 test material, 37° C., pH 6.5, control 0.111. As for the experimental part:
2.7 g.l^−1 human diferric transferrin (ex Sigma Chemicals) is incubated at 37° C. in 50 mM HEPES (N-[2-hydroxyethyl]piperazine-N-[2-ethanesulfonic acid]) buffer adjusted to pH 6.5 with sodium hydroxide, together with 0.115 g.l^−1 FerroZine (ex Sigma Chemicals; 3-(2-pyridyl)-5,6-bis(4-phenylsulfonic acid)-1,2,4-triazine, monosodium salt) and 10 mmol.l^−1 of the test material, if water soluble, or 2.5 g.l^−1 of the test material, added as a finely ground powder, if water insoluble.
After 24 hours, the extent of transferrin dissociation is estimated by eye or spectrophotometrically. Transferrin dissociation promoters lead a purple colouration; in particular, they lead to an absorption at 562 nm of 0.15 or greater. This purple colouration is the result of the production of iron(II) tri(FerroZine) complex. The molar concentration of this complex is equal to the molar concentration of iron dissociated from the transferrin.
2.7 g.l^−1 human diferric transferrin (ex Sigma Chemicals) was incubated at 37° C. in 50 mM HEPES (N-[2-hydroxyethyl]piperazine-N′-[2-ethanesulfonic acid]) buffer adjusted to pH 6.5 with sodium hydroxide, together with 0.115 g.l^−1 FerroZine (ex Sigma Chemicals; 3-(2-pyridyl)-5,6-bis(4-phenylsulfonic acid)-1,2,4-triazine, monosodium salt) and 10 mmol.l^−1 of the test material.
After 24 hours, the extent of transferrin dissociation was estimated spectrophotometrically by measuring absorption at 562 nm (vide supra). The data (see Table 5) illustrate the enhanced transferrin dissociation occurring in the presence of the indicated test materials.
In turn, `O=C(O)c1ccccc1O` [Salicylic acid] yielded an Absorption of 0.305.

As for `O=C(O)c1ccc(O)c(O)c1` [Protocatechuic acid], the Absorption came out at 0.391.

In turn, `O=S(=O)(O)c1cc(O)c(O)c(S(=O)(=O)O)c1` [Iron, 4,5-dihydroxy-1,3-benzenedisulfonic acid] showed an Absorption of 0.425.
